Where a name gives a salt, the structure may show the parent alone.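 Method: 48-hour compound exposure of cells in 96-well plates, five concentrations, linear interpolation of endpoints. GI50 marks 50% less growth.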 Active and inactive are the calls of the source. Rule as the data show it: active = GI50 up to about 1.1 µM and inactive = higher.
Tests used:
Test in all cases: inhibition of tumour cell growth, NCI panel, 48 h
DLD-1 = system: DLD-1
KM-20L2 = system: KM-20L2
M19-MEL = system: M19-MEL
LXFL 529 = system: LXFL 529
DMS-273 = system: DMS-273
DMS-114 = system: DMS-114
HOP-18 = system: HOP-18
XF498 = system: XF498
RXF 631 = system: RXF 631

CC1(C)NC(=O)N(CCCCCCN2C(=O)NC(C)(C)C2=O)C1=O
GI50 (DLD-1): > 100 µM (inactive) | GI50 (KM-20L2): > 100 µM (inactive) | GI50 (M19-MEL): > 100 µM (inactive) | GI50 (LXFL 529): > 100 µM (inactive) | GI50 (DMS-273): > 100 µM (inactive) | GI50 (DMS-114): > 100 µM (inactive) | GI50 (HOP-18): > 100 µM (inactive)

C=C(C)C1CC2C(C)=C(OC(C)=O)C1n1c(=O)c3cc4ccccc4cc3c(=O)n12 (stereo not drawn)
GI50 (DLD-1): 53.1 µM (inactive) | GI50 (KM-20L2): > 93.5 µM (inactive) | GI50 (M19-MEL): 74 µM (inactive) | GI50 (LXFL 529): 69.7 µM (inactive) | GI50 (DMS-273): 54.2 µM (inactive) | GI50 (DMS-114): 65.8 µM (inactive) | GI50 (HOP-18): > 100 µM (inactive)

CCOC(=O)C1Cc2ccc3c4c(ccc(c24)C1)CC(C(=O)OCC)C3
GI50 (XF498): > 100 µM (inactive) | GI50 (DLD-1): > 100 µM (inactive) | GI50 (KM-20L2): > 100 µM (inactive) | GI50 (M19-MEL): > 100 µM (inactive) | GI50 (DMS-273): > 100 µM (inactive) | GI50 (DMS-114): > 100 µM (inactive) | GI50 (HOP-18): > 100 µM (inactive)

O=C(CO)CC(=O)C(=O)Nc1ccccc1
GI50 (DLD-1): > 100 µM (inactive) | GI50 (KM-20L2): > 100 µM (inactive) | GI50 (M19-MEL): > 100 µM (inactive) | GI50 (LXFL 529): > 100 µM (inactive) | GI50 (DMS-273): > 100 µM (inactive) | GI50 (RXF 631): 46 µM (inactive) | GI50 (DMS-114): > 100 µM (inactive) | GI50 (HOP-18): > 100 µM (inactive)

CCCCCCCCCCCCCCCC(=O)OCC1OC(n2cc(F)c(=O)[nH]c2=O)C(NC(=O)OCc2ccccc2)C(O)C1O (stereo not drawn)
GI50 (XF498): 16.3 µM (inactive) | GI50 (KM-20L2): 22.3 µM (inactive) | GI50 (M19-MEL): 20.3 µM (inactive) | GI50 (LXFL 529): 16.7 µM (inactive) | GI50 (DMS-273): 16.8 µM (inactive) | GI50 (RXF 631): 18.3 µM (inactive) | GI50 (DMS-114): 14 µM (inactive) | GI50 (HOP-18): 16.8 µM (inactive)

CCOC(=O)C1(C)CCC(C(=O)OC)C1=O (stereo not drawn)
GI50 (XF498): > 100 µM (inactive) | GI50 (DLD-1): 57.4 µM (inactive) | GI50 (KM-20L2): > 100 µM (inactive) | GI50 (M19-MEL): 73.3 µM (inactive) | GI50 (LXFL 529): > 100 µM (inactive) | GI50 (DMS-114): 19.8 µM (inactive) | GI50 (HOP-18): > 100 µM (inactive)

COc1cc(/C=C/C(=N\NC(=O)c2ccccc2)c2sc(Nc3ccc(Cl)c(Cl)c3)nc2C)ccc1O
GI50 (XF498): 32.9 µM (inactive) | GI50 (DLD-1): 28.7 µM (inactive) | GI50 (KM-20L2): 33.4 µM (inactive) | GI50 (M19-MEL): 28.2 µM (inactive) | GI50 (LXFL 529): 31.6 µM (inactive) | GI50 (RXF 631): 20.6 µM (inactive) | GI50 (DMS-114): 23.8 µM (inactive) | GI50 (HOP-18): 24.1 µM (inactive)

CCCCCCCCCCCCCC(=O)OC(/C=C/C(C)C)C(O)C(O)C(OC)C(=O)NC1CCCCN(C)C1=O (stereo not drawn)
GI50 (DLD-1): 1.56 µM (inactive) | GI50 (KM-20L2): 2.94 µM (inactive) | GI50 (M19-MEL): 3.48 µM (inactive) | GI50 (LXFL 529): 2.97 µM (inactive) | GI50 (DMS-273): 0.817 µM (active) | GI50 (RXF 631): 1.18 µM (inactive) | GI50 (DMS-114): 1.2 µM (inactive) | GI50 (HOP-18): 3.54 µM (inactive)

O=c1/c(=C/c2ccc3c(c2)OCO3)sc2nnc(-c3ccco3)n12
GI50 (XF498): > 100 µM (inactive) | GI50 (DLD-1): > 100 µM (inactive) | GI50 (KM-20L2): > 100 µM (inactive) | GI50 (M19-MEL): > 100 µM (inactive) | GI50 (LXFL 529): > 100 µM (inactive) | GI50 (DMS-273): > 100 µM (inactive) | GI50 (DMS-114): > 100 µM (inactive) | GI50 (HOP-18): > 100 µM (inactive)

CSc1nc(C)cc(=O)n1C1OC(COC(C)=O)C(OC(C)=O)C(OC(C)=O)C1OC(C)=O (stereo not drawn)
GI50 (XF498): > 100 µM (inactive) | GI50 (DLD-1): > 100 µM (inactive) | GI50 (KM-20L2): > 100 µM (inactive) | GI50 (M19-MEL): > 100 µM (inactive) | GI50 (LXFL 529): > 100 µM (inactive) | GI50 (DMS-273): > 100 µM (inactive) | GI50 (DMS-114): > 100 µM (inactive)

C=CCCC(O)c1cc(C)c(O)c(C)c1 (stereo not drawn)
GI50 (KM-20L2): > 100 µM (inactive) | GI50 (M19-MEL): > 100 µM (inactive) | GI50 (LXFL 529): > 100 µM (inactive) | GI50 (DMS-114): > 100 µM (inactive) | GI50 (HOP-18): > 100 µM (inactive)

C[C@]12CC=CC(=O)[C@@]1(C)CCC(=O)C2
GI50 (XF498): 75.7 µM (inactive) | GI50 (DLD-1): > 100 µM (inactive) | GI50 (M19-MEL): > 100 µM (inactive) | GI50 (LXFL 529): > 100 µM (inactive) | GI50 (DMS-273): > 100 µM (inactive) | GI50 (RXF 631): > 100 µM (inactive) | GI50 (DMS-114): > 100 µM (inactive)

COc1ccc(C[P+]2(c3ccccc3)CCCCC2)cc1.O=[N+]([O-])c1ccc(C[P+]2(c3ccccc3)CCCCC2)cc1.[O-][Cl+3]([O-])([O-])[O-].[O-][Cl+3]([O-])([O-])[O-]
GI50 (XF498): > 100 µM (inactive) | GI50 (DLD-1): > 100 µM (inactive) | GI50 (LXFL 529): 16.4 µM (inactive) | GI50 (DMS-273): 60 µM (inactive) | GI50 (RXF 631): > 100 µM (inactive) | GI50 (DMS-114): 36.1 µM (inactive) | GI50 (HOP-18): 15.4 µM (inactive)

Cc1n(-c2ccccc2)c2c([n+]1Cc1ccc([N+](=O)[O-])cc1)C(=O)c1ccccc1C2=O
GI50 (DLD-1): 5.43 µM (inactive) | GI50 (KM-20L2): 3.23 µM (inactive) | GI50 (M19-MEL): 1.16 µM (inactive) | GI50 (LXFL 529): 1.42 µM (inactive) | GI50 (DMS-273): 1.92 µM (inactive) | GI50 (DMS-114): 0.386 µM (active) | GI50 (HOP-18): 7.19 µM (inactive)

Cc1nnc(N/N=C(/C(=O)C(C#N)c2ccc(Cl)cc2)C(C#N)c2ccc(Cl)cc2)n1N (stereo not drawn)
GI50 (XF498): 28.8 µM (inactive) | GI50 (DLD-1): 20.1 µM (inactive) | GI50 (KM-20L2): 20.3 µM (inactive) | GI50 (LXFL 529): 13.4 µM (inactive) | GI50 (DMS-273): 19 µM (inactive) | GI50 (RXF 631): 19.8 µM (inactive) | GI50 (DMS-114): 15.7 µM (inactive) | GI50 (HOP-18): 16.4 µM (inactive)

O=[N+]([O-])c1cc(Cl)ccc1S(=O)(=O)c1ccc(Cl)cc1[N+](=O)[O-]
GI50 (DLD-1): 15.6 µM (inactive) | GI50 (KM-20L2): 16.7 µM (inactive) | GI50 (M19-MEL): 15 µM (inactive) | GI50 (LXFL 529): 14.1 µM (inactive) | GI50 (DMS-273): 14.2 µM (inactive) | GI50 (DMS-114): 11.3 µM (inactive) | GI50 (HOP-18): 16.7 µM (inactive)

O=C(CCC(=O)Nc1ccc(Cl)c(Cl)c1)CC(=O)c1ccc(F)cc1
GI50 (DLD-1): > 100 µM (inactive) | GI50 (KM-20L2): > 100 µM (inactive) | GI50 (M19-MEL): > 100 µM (inactive) | GI50 (LXFL 529): > 100 µM (inactive) | GI50 (DMS-273): > 100 µM (inactive) | GI50 (RXF 631): > 100 µM (inactive) | GI50 (DMS-114): > 100 µM (inactive) | GI50 (HOP-18): > 100 µM (inactive)

CCCCCCCCCC1CC(=O)Oc2cccc(O)c21 (stereo not drawn)
GI50 (XF498): 21.6 µM (inactive) | GI50 (DLD-1): 27.9 µM (inactive) | GI50 (KM-20L2): 31.3 µM (inactive) | GI50 (M19-MEL): 31.3 µM (inactive) | GI50 (LXFL 529): 24.4 µM (inactive) | GI50 (DMS-273): 4.03 µM (inactive) | GI50 (RXF 631): 0.617 µM (active) | GI50 (DMS-114): 15.7 µM (inactive) | GI50 (HOP-18): 51.4 µM (inactive)

COc1cc2c(cc1O)CC13CCC(=O)N1CCc1cc(OC)c(O)c-2c13 (stereo not drawn)
GI50 (DLD-1): > 68.1 µM (inactive) | GI50 (KM-20L2): > 68.1 µM (inactive) | GI50 (M19-MEL): > 68.1 µM (inactive) | GI50 (LXFL 529): > 68.1 µM (inactive) | GI50 (RXF 631): 39.9 µM (inactive) | GI50 (DMS-114): > 68.1 µM (inactive) | GI50 (HOP-18): > 68.1 µM (inactive)

O=C1CCC(O)=C1O
GI50 (XF498): > 100 µM (inactive) | GI50 (DLD-1): > 100 µM (inactive) | GI50 (KM-20L2): > 100 µM (inactive) | GI50 (M19-MEL): > 100 µM (inactive) | GI50 (LXFL 529): > 100 µM (inactive) | GI50 (DMS-273): > 100 µM (inactive) | GI50 (RXF 631): > 100 µM (inactive) | GI50 (DMS-114): > 100 µM (inactive) | GI50 (HOP-18): > 100 µM (inactive)

NCCOCCOCC(=O)O
GI50 (KM-20L2): > 100 µM (inactive) | GI50 (M19-MEL): > 100 µM (inactive) | GI50 (LXFL 529): > 100 µM (inactive) | GI50 (DMS-273): > 100 µM (inactive) | GI50 (DMS-114): > 100 µM (inactive)

NCCSSCCN [CYSTAMINE HYDROCHLORIDE]
GI50 (XF498): > 100 µM (inactive) | GI50 (DLD-1): > 100 µM (inactive) | GI50 (KM-20L2): > 100 µM (inactive) | GI50 (M19-MEL): > 100 µM (inactive) | GI50 (LXFL 529): > 100 µM (inactive) | GI50 (DMS-273): > 100 µM (inactive) | GI50 (RXF 631): > 100 µM (inactive) | GI50 (DMS-114): > 100 µM (inactive) | GI50 (HOP-18): > 100 µM (inactive)

From ChEMBL document CHEMBL1201862, “PubChem BioAssay data set” (2004)
